From US10828317B2, “Method of treating bacterial infections” (priority 2016, dated 2020)
Like-named read-outs stand apart in the source and are kept apart here.

Columns and labels:
S. marescens EN0454 = test: MIC; type: cell-based, Serratia marescens; conditions: Serratia, read-out: MIC
M. luteus EN0455 = test: MIC; type: cell-based, Micrococcus luteus; conditions: Micrococcus luteus, read-out: MIC
P. mirabilis EN0457 = test: MIC; type: cell-based, Proteus mirabilis; conditions: Proteus mirabilis, read-out: MIC
E. coli B EN0458 = test: MIC; type: cell-based, Escherichia coli B; conditions: Escherichia coli, read-out: MIC
P. aeruginosa EN0459 = test: MIC; type: cell-based, Pseudomonas aeruginosa; conditions: Pseudomonas aeruginosa, read-out: MIC
P. aeruginosa EN0460 = test: MIC; type: cell-based, Pseudomonas aeruginosa; conditions: Pseudomonas aeruginosa, read-out: MIC
E. aerogenes EN0461 = test: MIC; type: cell-based, Enterobacter aerogenes; conditions: Klebsiella aerogenes, read-out: MIC
K. pneumoniae EN0463 = test: MIC; type: cell-based, Klebsiella pneumoniae; conditions: Klebsiella pneumoniae, read-out: MIC
S. epidermidis EN0456 = test: MIC; type: cell-based, Staphylococcus epidermidis; conditions: Staphylococcus epidermidis, read-out: MIC
Citrobacter sp. EN0465 = test: MIC; type: cell-based; conditions: Citrobacter, read-out: MIC
[1] = system: A. pittii or A. nosocomialis EN0180; test: MIC; type: cell-based, Acinetobacter pittii or nosocomialis; conditions: read-out: MIC
P. mirabilis ST19 EN0445 = test: MIC; type: cell-based, Proteus mirabilis; conditions: Proteus mirabilis, read-out: MIC
E. coli EN001 = test: MIC, WT (EN001 = EN0001, ATCC 25922); type: cell-based, Escherichia coli
E. coli EN002 = test: MIC, DtoIC; type: cell-based, Escherichia coli; conditions: Escherichia coli, read-out: MIC

COc1cc(Cc2cnc(N)nc2N)cc(OC)c1OC [Trimethoprim, trimethoprim] showed an MIC (S. marescens EN0454; EN0454, Combination 1 AZT+trimethoprim+uridine, Table 16) greater than 4 µg/mL, an MIC (S. marescens EN0454; EN0454, Combination 2 AZT+trimethoprim+uridine+thymidine, Table 16) greater than 4 µg/mL and an MIC (S. marescens EN0454; EN0454, combination AZT+trimethoprim+uridine, Table 6) of 1 µg/mL. It also gave an MIC (S. marescens EN0454; EN0454, combination FdUrd+trimethoprim+uridine, Table 8) greater than 8 µg/mL, an MIC (S. marescens EN0454; EN0454, combination didanosine+trimethoprim+uridine, Table 10) greater than 8 µg/mL and an MIC (M. luteus EN0455; EN0455, Combination 1 AZT+trimethoprim+uridine, Table 16) of 2 µg/mL. It also gave an MIC (M. luteus EN0455; EN0455, Combination 2 AZT+trimethoprim+uridine+thymidine, Table 16) greater than 4 µg/mL, an MIC (M. luteus EN0455; EN0455, combination AZT+trimethoprim+uridine, Table 6) of 2 µg/mL and an MIC (M. luteus EN0455; EN0455, combination FdUrd+trimethoprim+uridine, Table 8) of 4 µg/mL. The MIC (M. luteus EN0455; EN0455, combination didanosine+trimethoprim+uridine, Table 10) was 4 µg/mL, the MIC (P. mirabilis EN0457; EN0457, Combination 1 AZT+trimethoprim+uridine, Table 16) was 2 µg/mL and the MIC (P. mirabilis EN0457; EN0457, Combination 2 AZT+trimethoprim+uridine+thymidine, Table 16) was greater than 4 µg/mL. It also gave an MIC (P. mirabilis EN0457; EN0457, combination AZT+trimethoprim+uridine, Table 6) of 2 µg/mL, an MIC (P. mirabilis EN0457; EN0457, combination FdUrd+trimethoprim+uridine, Table 8) of 2 µg/mL and an MIC (P. mirabilis EN0457; EN0457, combination didanosine+trimethoprim+uridine, Table 10) of 4 µg/mL. The MIC (E. coli B EN0458; BEN0458, combination FdUrd+trimethoprim+uridine, Table 8) was 0.064 µg/mL, the MIC (E. coli B EN0458; BEN0458, combination didanosine+trimethoprim+uridine, Table 10) was 0.064 µg/mL and the MIC (P. aeruginosa EN0459; EN0459, Combination 1 AZT+trimethoprim+uridine, Table 16) was greater than 4 µg/mL. It also gave an MIC (P. aeruginosa EN0459; EN0459, Combination 2 AZT+trimethoprim+uridine+thymidine, Table 16) greater than 4 µg/mL, an MIC (P. aeruginosa EN0459; EN0459, combination AZT+trimethoprim+uridine, Table 6) greater than 4 µg/mL and an MIC (P. aeruginosa EN0459; EN0459, combination FdUrd+trimethoprim+uridine, Table 8) greater than 8 µg/mL. The MIC (P. aeruginosa EN0459; EN0459, combination didanosine+trimethoprim+uridine, Table 10) was greater than 8 µg/mL, the MIC (P. aeruginosa EN0460; EN0460, Combination 1 AZT+trimethoprim+uridine, Table 16) was greater than 4 µg/mL and the MIC (P. aeruginosa EN0460; EN0460, Combination 2 AZT+trimethoprim+uridine+thymidine, Table 16) was greater than 4 µg/mL. The MIC (P. aeruginosa EN0460; EN0460, combination AZT+trimethoprim+uridine, Table 6) was greater than 4 µg/mL, the MIC (P. aeruginosa EN0460; EN0460, combination FdUrd+trimethoprim+uridine, Table 8) was greater than 8 µg/mL and the MIC (P. aeruginosa EN0460; EN0460, combination didanosine+trimethoprim+uridine, Table 10) was greater than 8 µg/mL. The MIC (E. aerogenes EN0461; EN0461, Combination 1 AZT+trimethoprim+uridine, Table 16) was 0.25 µg/mL, the MIC (E. aerogenes EN0461; EN0461, Combination 2 AZT+trimethoprim+uridine+thymidine, Table 16) was 2 µg/mL and the MIC (E. aerogenes EN0461; EN0461, combination AZT+trimethoprim+uridine, Table 6) was 0.25 µg/mL. It also gave an MIC (E. aerogenes EN0461; EN0461, combination FdUrd+trimethoprim+uridine, Table 8) of 2 µg/mL, an MIC (E. aerogenes EN0461; EN0461, combination didanosine+trimethoprim+uridine, Table 10) of 1 µg/mL and an MIC (K. pneumoniae EN0463; EN0463, combination AZT+trimethoprim+uridine, Table 6) of 0.06 µg/mL. It also gave an MIC (K. pneumoniae EN0463; EN0463, combination FdUrd+trimethoprim+uridine, Table 8) of 0.5 µg/mL, an MIC (K. pneumoniae EN0463; EN0463, combination didanosine+trimethoprim+uridine, Table 10) of 0.5 µg/mL and an MIC (S. epidermidis EN0456; EN0456, Combination 1 AZT+trimethoprim+uridine, Table 16) of 0.064 µg/mL. For the same compound, the MIC (S. epidermidis EN0456; EN0456, Combination 2 AZT+trimethoprim+uridine+thymidine, Table 16) was 2 µg/mL, the MIC (S. epidermidis EN0456; EN0456, combination AZT+trimethoprim+uridine, Table 6) was 0.06 µg/mL and the MIC (S. epidermidis EN0456; EN0456, combination FdUrd+trimethoprim+uridine, Table 8) was less than 0.016 µg/mL. For the same compound, the MIC (Citrobacter sp. EN0465; SP.EN0465, Combination 1 AZT+trimethoprim+uridine, Table 16) was greater than 4 µg/mL, the MIC (Citrobacter sp. EN0465; SP.EN0465, Combination 2 AZT+trimethoprim+uridine+thymidine, Table 16) was greater than 4 µg/mL and the MIC (Citrobacter sp. EN0465; SP.EN0465, combination AZT+trimethoprim+uridine, Table 6) was greater than 4 µg/mL. The MIC (Citrobacter sp. EN0465; SP.EN0465, combination FdUrd+trimethoprim+uridine, Table 8) was greater than 8 µg/mL, the MIC (Citrobacter sp. EN0465; SP.EN0465, combination didanosine+trimethoprim+uridine, Table 10) was greater than 8 µg/mL and the MIC ([1]; Combination 1 AZT+trimethoprim+uridine, Table 16) was greater than 4 µg/mL. The MIC ([1]; Combination 2 AZT+trimethoprim+uridine+thymidine, Table 16) was greater than 4 µg/mL, the MIC ([1]; combination AZT+trimethoprim+uridine, Table 6) was greater than 4 µg/mL and the MIC ([1]; combination FdUrd+trimethoprim+uridine, Table 8) was 8 µg/mL. For the same compound, the MIC ([1]; combination didanosine+trimethoprim+uridine, Table 10) was greater than 8 µg/mL, the MIC (P. mirabilis ST19 EN0445; ST19EN0445, Combination 1 AZT+trimethoprim+uridine, Table 16) was 1 µg/mL and the MIC (P. mirabilis ST19 EN0445; ST19EN0445, Combination 2 AZT+trimethoprim+uridine+thymidine, Table 16) was greater than 4 µg/mL. For the same compound, the MIC (P. mirabilis ST19 EN0445; ST19EN0445, combination AZT+trimethoprim+uridine, Table 6) was greater than 4 µg/mL, the MIC (P. mirabilis ST19 EN0445; ST19EN0445, combination FdUrd+trimethoprim+uridine, Table 8) was 1 µg/mL and the MIC (P. mirabilis ST19 EN0445; ST19EN0445, combination didanosine+trimethoprim+uridine, Table 10) was 2 µg/mL. For the same compound, the MIC (E. coli EN001; Escherichia coli, EN001, Combination 1 AZT+trimethoprim+uridine, Table 16, read-out: MIC) was 0.064 µg/mL, the MIC (E. coli EN001; Escherichia coli, EN001, combination FdUrd+trimethoprim+uridine, Table 8, read-out: MIC) was 0.25 µg/mL and the MIC (E. coli EN001; Escherichia coli, EN001, combination didanosine+trimethoprim+uridine, Table 10, read-out: MIC) was 0.25 µg/mL. The MIC (E. coli EN001; combination FdUrd+trimethoprim+uridine, Table 19) was 0.5 µg/mL, the MIC (E. coli EN001; combination didanosine+trimethoprim+uridine, Table 20) was 0.5 µg/mL and the MIC (E. coli EN002; EN002, Combination 1 AZT+trimethoprim+uridine, Table 16) was 0.016 µg/mL. The MIC (E. coli EN002; EN002, combination AZT+trimethoprim+uridine, Table 6) was 0.016 µg/mL and the MIC (E. coli EN002; EN002, combination FdUrd+trimethoprim+uridine, Table 8) was 0.064 µg/mL.
